Test results taken from PubChem BioAssay AID2060500 (Molecular Pharmacology Branch, DTP, NCI, 2025).

System: 596521-263-R-J1-PDC complex spheroids, viability % of control
Experiment: Anticancer human tumor 596521-263-R-J1-PDC patient-derived soft tissue sarcoma cell line growth inhibition [GQUAD]
Conditions: for IC50: curve of first compound; for viability, T/C: stronger effect = lower value
Source text: DNA G-quadruplex Stabilizer Agents in Combinations in Complex Spheroids
A high-throughput screen of multi-cell type tumor spheroids was designed to identify active combinations of DNA G-quadruplex stabilizer agents and targeted small molecules. Complex spheroids include a stromal component modeled by human endothelial cells (HUVEC) and fibroblasts modeled by human mesenchymal stem cells (MSCs). The concentration ranges selected for each drug and investigational agent were based upon clinically achievable concentrations if the clinical Cmax of the agent was known.
Compounds. The drugs and investigational agents: pidnarulex (CX-5461; NSC782164), APTO-253 (NSC789042), BRACO-19 (NSC847499), peposertib (NSC802822), ceralasertib (NSC780249), elimusertib (NSC800525), camonsertib (NSC841442), AZD-1390 (NSC803789), olaparib (NSC753686), talazoparib (NSC767125), ART-558 (NSC835418), sotorasib (NSC818433), MRTX-1133 (NSC836407), SN-38 (NSC673596), topotecan (NSC609699), etoposide (NSC141540), doxorubicin (NSC123127), gemcitabine (NSC613327), 5-fluorouracil (NSC19893), paclitaxel (NSC125973), vemurafenib (NSC761431), panobinostat (NSC761190), R-306465 (JNJ-16241199; NSC773264), adavosertib (NSC754352), TP-3654 (NSC805149), carboplatin (NSC241240), KSQ-4279 (NSC840948), and staurosporine (NSC755774) were obtained from the National Cancer Institute (NCI) Developmental Therapeutics Program Chemical Repository (34). The FDA-approved anticancer drug set is available from the NCI Developmental Therapeutics Program. […] The stock solutions were prepared in dimethyl sulfoxide (DMSO, Sigma-Aldrich, St. Louis, MO, cat. D2650) at 800-fold the tested concentration and stored at -70 degrees C prior to their use. All drugs and investigational agents were tested over a range starting from a high concentration at or near the clinical Cmax and decreasing in half-log increments. If the clinical Cmax for an agent had not been determined, the highest concentration tested was 10 microM.
2.3 Cell Culture. All cells were maintained in an incubator at 37 degrees C and 5% CO2 with 95% humidity. The PDC lines were cultured according to standard operating procedures established by the NCI PDMR. All PDCs were thawed and cultured in Matrigel-coated flasks prepared with a working solution of 1X Ham's F-12 nutrient mix, without supplementation (Invitrogen, cat. 11765054), 100 U/mL penicillin-streptomycin (Invitrogen, cat. 15140122), and 2.5% Matrigel (Corning Inc., cat. 354248) for the first three passages. The 857933-349-R-J2-PDC line was cultured in 6C/Colon 1B media, which includes advanced DMEM/F-12 (Thermo Fisher Scientific, cat. 12634028), 10 mM HEPES (Thermo Fisher Scientific, cat. 15630080), 1X GlutaMAX supplement (Thermo Fisher Scientific, cat. 35050061), 0.1 mg/mL primocin (InvivoGen, cat. ant-pm-2), 10% defined fetal bovine serum, heat inactivated (HyClone Laboratories Inc., cat. SH30070.03HI), 50% L-WRN conditioned media (ATCC, cat. CRL-3276), 1.25 mM N-Acetyl-L-cysteine (Sigma-Aldrich, cat. A9165), 10 mM nicotinamide (Sigma-Aldrich, cat. N0636), 1X B-27 supplement (Thermo Fisher Scientific, cat. 17504044), 1X N-2 supplement (Thermo Fisher Scientific, cat. 17502048), 10 microM Y-27632 dihydrochloride (Tocris Bioscience, cat. 1254), and 50 ng/mL human EGF recombinant protein (Thermo Fisher Scientific, cat. PHG0311). The 485176-168-R4-J1-PDC line was cultured in Panc media, which includes all 6C/Colon 1B media components plus 100 ng/mL human FGF-10 (Thermo Fisher Scientific, cat. 100-26), 500 nM SB-431542 (Selleckchem, cat. S1067), and gastrin (Tocris, cat. 3006).
[…]

[1] = second compound 0.0316 µM, first compound 0.0316 µM
[2] = second compound 0.0316 µM, first compound 0.1 µM
[3] = second compound 0.0316 µM, first compound 0.316 µM
[4] = second compound 0.0316 µM, first compound 1 µM
[5] = second compound 0.0316 µM, first compound 3.16 µM
[6] = second compound 0.0316 µM, first compound 10 µM
[7] = second compound 0.1 µM, first compound 0.0316 µM
[8] = second compound 0.1 µM, first compound 0.1 µM
[9] = second compound 0.1 µM, first compound 0.316 µM
[10] = second compound 0.1 µM, first compound 1 µM
[11] = second compound 0.1 µM, first compound 3.16 µM
[12] = second compound 0.1 µM, first compound 10 µM
[13] = second compound 0.316 µM, first compound 0.0316 µM
[14] = second compound 0.316 µM, first compound 0.1 µM
[15] = second compound 0.316 µM, first compound 0.316 µM
[16] = second compound 0.316 µM, first compound 1 µM
[17] = second compound 0.316 µM, first compound 3.16 µM
[18] = second compound 0.316 µM, first compound 10 µM
[19] = second compound 1 µM, first compound 0.0316 µM
[20] = second compound 1 µM, first compound 0.1 µM
[21] = second compound 1 µM, first compound 0.316 µM
[22] = second compound 1 µM, first compound 1 µM
[23] = second compound 1 µM, first compound 3.16 µM
[24] = second compound 1 µM, first compound 10 µM
[25] = second compound 3.16 µM, first compound 0.0316 µM
[26] = second compound 3.16 µM, first compound 0.1 µM
[27] = second compound 3.16 µM, first compound 0.316 µM
[28] = second compound 3.16 µM, first compound 1 µM
[29] = second compound 3.16 µM, first compound 3.16 µM
[30] = second compound 3.16 µM, first compound 10 µM
[31] = second compound 10 µM, first compound 0.0316 µM
[32] = second compound 10 µM, first compound 0.1 µM
[33] = second compound 10 µM, first compound 0.316 µM
[34] = second compound 10 µM, first compound 1 µM
[35] = second compound 10 µM, first compound 3.16 µM
[36] = second compound 10 µM, first compound 10 µM
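Also: spheroids exposed to drugs for 7 days before viability reading.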

With `CC1COCCN1c1cc(-c2ccnn2C)c2ccnc(-c3ccn[nH]3)c2n1` (centres undefined) + CN(C)c1ccc(Nc2c3ccc(NC(=O)CCN4CCCC4)cc3nc3cc(NC(=O)CCN4CCCC4)ccc23)cc1 the IC50 (second compound 0.0316 µM) was 206 nM, the IC50 (second compound 0.1 µM) was 301 nM and the IC50 (second compound 0.316 µM) was 366 nM. It also gave an IC50 (second compound 1 µM) of 449 nM, an IC50 (second compound 3.16 µM) of 348 nM and an IC50 (second compound 10 µM) of 161 nM. The viability, T/C [1] was 69.3%, the viability, T/C [2] was 53.7% and the viability, T/C [3] was 44.4%. For the same compound, the viability, T/C [4] was 41.3%, the viability, T/C [5] was 29.4% and the viability, T/C [6] was 22.8%. For the same compound, the viability, T/C [7] was 81%, the viability, T/C [8] was 59.2% and the viability, T/C [9] was 49.5%. The viability, T/C [10] was 39.2%, the viability, T/C [11] was 30.9% and the viability, T/C [12] was 21.3%. For the same compound, the viability, T/C [13] was 65.6%, the viability, T/C [14] was 63.4% and the viability, T/C [15] was 49.9%. The viability, T/C [16] was 39.3%, the viability, T/C [17] was 30.4% and the viability, T/C [18] was 21.9%. It also gave a viability, T/C [19] of 66.2%, a viability, T/C [20] of 63.6% and a viability, T/C [21] of 50.2%. It also gave a viability, T/C [22] of 45.4%, a viability, T/C [23] of 30.6% and a viability, T/C [24] of 25%. It also gave a viability, T/C [25] of 69.4%, a viability, T/C [26] of 59.4% and a viability, T/C [27] of 49.8%. For the same compound, the viability, T/C [28] was 43.6%, the viability, T/C [29] was 31.1% and the viability, T/C [30] was 22.9%. The viability, T/C [31] was 55.6%, the viability, T/C [32] was 54.8% and the viability, T/C [33] was 44.4%. The viability, T/C [34] was 35.5%, the viability, T/C [35] was 26.6% and the viability, T/C [36] was 21.9%.
In the case of `CC1COCCN1c1cc(C2(O)CC3CCC(C2)O3)c2cnn(-c3ccn[nH]3)c2n1` (centres undefined) + CN(C)c1ccc(Nc2c3ccc(NC(=O)CCN4CCCC4)cc3nc3cc(NC(=O)CCN4CCCC4)ccc23)cc1, the IC50 (second compound 0.0316 µM) is reported as 134 nM, the IC50 (second compound 0.1 µM) is reported as 221 nM and the IC50 (second compound 0.316 µM) is reported as 148 nM. It also gave an IC50 (second compound 1 µM) of 162 nM, an IC50 (second compound 3.16 µM) of 112 nM and an IC50 (second compound 10 µM) of 66.4 nM. For the same compound, the viability, T/C [1] was 72.6%, the viability, T/C [2] was 48.7% and the viability, T/C [3] was 40.9%. It also gave a viability, T/C [4] of 29.4%, a viability, T/C [5] of 24.3% and a viability, T/C [6] of 12.3%. For the same compound, the viability, T/C [7] was 70.3%, the viability, T/C [8] was 56.9% and the viability, T/C [9] was 48.3%. It also gave a viability, T/C [10] of 32.6%, a viability, T/C [11] of 22.8% and a viability, T/C [12] of 13.6%. The viability, T/C [13] was 66.3%, the viability, T/C [14] was 48.8% and the viability, T/C [15] was 47.3%. For the same compound, the viability, T/C [16] was 31.9%, the viability, T/C [17] was 20.4% and the viability, T/C [18] was 13.2%. The viability, T/C [19] was 69.6%, the viability, T/C [20] was 50.3% and the viability, T/C [21] was 46.6%. The viability, T/C [22] was 31.1%, the viability, T/C [23] was 24.7% and the viability, T/C [24] was 14.3%. For the same compound, the viability, T/C [25] was 58.5%, the viability, T/C [26] was 51.2% and the viability, T/C [27] was 40.5%. It also gave a viability, T/C [28] of 35.2%, a viability, T/C [29] of 23.9% and a viability, T/C [30] of 15.6%. For the same compound, the viability, T/C [31] was 61.7%, the viability, T/C [32] was 39% and the viability, T/C [33] was 36.8%. For the same compound, the viability, T/C [34] was 28.2%, the viability, T/C [35] was 21.6% and the viability, T/C [36] was 14.8%.
